The text below walks through data of US12378249B2, “Isoquinoline compounds and uses thereof” (Genentech, Inc., priority 2018, dated 2025).

Chain of HPK1 (Q92918 whole entry T165E/S171E): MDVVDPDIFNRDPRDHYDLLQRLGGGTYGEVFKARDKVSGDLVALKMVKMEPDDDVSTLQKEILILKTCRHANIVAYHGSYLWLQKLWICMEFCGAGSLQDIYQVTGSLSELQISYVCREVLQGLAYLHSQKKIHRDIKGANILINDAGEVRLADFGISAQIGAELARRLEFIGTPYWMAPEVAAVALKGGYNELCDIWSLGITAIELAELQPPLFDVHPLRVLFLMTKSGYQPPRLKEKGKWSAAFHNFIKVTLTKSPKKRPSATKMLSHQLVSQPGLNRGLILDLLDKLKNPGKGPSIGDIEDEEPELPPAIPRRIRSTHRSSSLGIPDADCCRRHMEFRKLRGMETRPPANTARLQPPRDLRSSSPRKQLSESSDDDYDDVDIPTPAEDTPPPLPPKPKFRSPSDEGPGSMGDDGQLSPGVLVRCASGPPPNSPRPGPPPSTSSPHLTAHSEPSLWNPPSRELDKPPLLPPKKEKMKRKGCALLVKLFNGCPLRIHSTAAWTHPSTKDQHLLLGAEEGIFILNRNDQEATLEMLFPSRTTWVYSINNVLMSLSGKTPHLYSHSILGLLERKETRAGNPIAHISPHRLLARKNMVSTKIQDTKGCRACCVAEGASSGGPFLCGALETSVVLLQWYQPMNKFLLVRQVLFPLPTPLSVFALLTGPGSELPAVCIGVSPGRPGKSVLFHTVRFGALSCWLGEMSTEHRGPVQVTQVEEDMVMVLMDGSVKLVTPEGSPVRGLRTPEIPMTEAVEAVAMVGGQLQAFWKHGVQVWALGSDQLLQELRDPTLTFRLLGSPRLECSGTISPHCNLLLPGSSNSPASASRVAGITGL

The assay addresses HPK1 (Homo sapiens (Human), UniProt Q92918, S171E/T165E). The experiment in a line: HPK1-FL HTRF Enzymatic Assay (HTRF). Format: biochemical. The following applies: HPK full length T165E S171E 0.125 nM, ATP 1 mM, Biotin-SLP76 100 nM, read-out: HPK1 Ki (nM), H = HTRF. An outline of the steps:
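Ki derived from % activity calculated from the TR-FRET 665/620 ratio, using Eu-anti-pSLP76 and SA-XL665 detection added for 60 min. Reaction: compound preincubated 30 min with full-length double-mutant HPK1, then 60 min with Biotin-SLP-76 and 1 mM ATP, pH 7.5 HEPES buffer.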
Take `Cc1c(N)cncc1-c1cc2cc(Nc3cc4n(n3)CC3=NOC(C)(C)N3CC4)ncc2cc1F` [Compound 166, N-(6-(5-amino-4-methylpyridin-3-yl)-7-fluoroisoquinolin-3-yl)-3,3-dimethyl-5,6-dihydro-3H,11H-[1,2,4]oxadiazolo[4,3-a]pyrazolo[1,5-d][1,4]diazepin-8-amine]: the Ki stood at 0.12 nM.
The figure for `Cc1c(N)cncc1-c1cc(F)c2cnc(Nc3cc4n(n3)Cc3nccn3CC4)cc2c1` [Compound 168, N-(6-(5-amino-4-methylpyridin-3-yl)-8-fluoroisoquinolin-3-yl)-5,6-dihydro-1I1H-imidazo[1,2-a]pyrazolo[1,5-d][1,4]diazepin-8-amine] is 0.028 nM; for `Cc1c(N)cncc1-c1cc2cc(Nc3cc4n(n3)CC(=O)N(C(C)C)CC4)ncc2cc1C#N` [Compound 169, 6-(5-amino-4-methylpyridin-3-yl)-3-((6-isopropyl-7-oxo-5,6,7,8-tetrahydro-4H-pyrazolo[1,5-d][1,4]diazepin-2-yl)amino)isoquinoline-7-carbonitrile] it is 0.39 nM; for `CC(=O)Nc1cncc(-c2cc3cc(Nc4cc5n(n4)CC(=O)N(C)CC5)ncc3cc2F)c1C` [Compound 171, N-(5-(7-fluoro-3-((6-methyl-7-oxo-5,6,7,8-tetrahydro-4H-pyrazolo[1,5-d][1,4]diazepin-2-yl)amino)isoquinolin-6-yl)-4-methylpyridin-3-yl)acetamide] it is 1.78 nM.
As to `Cc1c(NS(C)(=O)=O)cncc1-c1cc2cc(Nc3cc4n(n3)CC(=O)N(C)CC4)ncc2cc1F` [Compound 172, N-(5-(7-fluoro-3-((6-methyl-7-oxo-5,6,7,8-tetrahydro-4H-pyrazolo[1,5-d][1,4]diazepin-2-yl)amino)isoquinolin-6-yl)-4-methylpyridin-3-yl)methanesulfonamide], the Ki was found to be 0.46 nM.
On to `Cc1c(-c2ccc3cnc(Nc4cc5n(n4)CC(=O)N(C)CC5)cc3c2F)cnc2c1NCCO2` [Compound 174, 2-((5-fluoro-6-(8-methyl-2,3-dihydro-1H-pyrido[2,3-b][1,4]oxazin-7-yl)isoquinolin-3-yl)amino)-6-methyl-5,6-dihydro-4H-pyrazolo[1,5-d][1,4]diazepin-7(8H)-one], for which the Ki came out at 0.026 nM.
The figure for `Cc1c(-c2cc3cc(Nc4cc5n(n4)CC(=O)N(C)CC5)ncc3cc2F)cnc2nc[nH]c12` [Compound 175, 2-((7-fluoro-6-(7-methyl-1H-imidazo[4,5-b]pyridin-6-yl)isoquinolin-3-yl)amino)-6-methyl-5,6-dihydro-4H-pyrazolo[1,5-d][1,4]diazepin-7(8H)-one] is 0.14 nM.
For `Cc1c(-c2cc3cc(Nc4cc5n(n4)CC(=O)NCC5)ncc3cc2F)cnc2c1NCC(F)(F)O2` [Compound 176, 2-((6-(3,3-difluoro-8-methyl-2,3-dihydro-1H-pyrido[2,3-b][1,4]oxazin-7-yl)-7-fluoroisoquinolin-3-yl)amino)-5,6-dihydro-4H-pyrazolo[1,5-d][1,4]diazepin-7(8H)-one] the value was 0.161 nM; for `Cc1c(-c2cc3cc(Nc4cc5n(n4)CC(=O)N(C)CC5)ncc3cc2F)cnc2c1NCCS2(=O)=O` [Compound 177, 2-((7-fluoro-6-(8-methyl-4,4-dioxido-2,3-dihydro-1H-pyrido[2,3-b][1,4]thiazin-7-yl)isoquinolin-3-yl)amino)-6-methyl-5,6-dihydro-4H-pyrazolo[1,5-d][1,4]diazepin-7(8H)-one], 0.277 nM; for `Cc1cc(S(C)(=N)=O)ncc1-c1cc2cc(Nc3cc4n(n3)CC(=O)N(C)CC4)ncc2cc1F` (stereo not shown) [Compound 178, 2-((7-fluoro-6-(4-methyl-6-(S-methylsulfonimidoyl)pyridin-3-yl)isoquinolin-3-yl)amino)-6-methyl-5,6-dihydro-4H-pyrazolo[1,5-d][1,4]diazepin-7(8H)-one], 23.7 nM.
Consider `Cc1c(NC2CNC2)cncc1-c1cc2cc(Nc3cc4n(n3)Cc3nccn3CC4)ncc2cc1F` [Compound 179, N-(6-(5-(azetidin-3-ylamino)-4-methylpyridin-3-yl)-7-fluoroisoquinolin-3-yl)-5,6-dihydro-11H-imidazo[1,2-a]pyrazolo[1,5-d][1,4]diazepin-8-amine], for which the Ki was 0.5 nM.
For `CNc1cncc(-c2cc3cc(Nc4cc5n(n4)CC(=O)NCC5)ncc3cc2F)c1C` [Compound 181, 2-((7-fluoro-6-(4-methyl-5-(methylamino)pyridin-3-yl)isoquinolin-3-yl)amino)-5,6-dihydro-4H-pyrazolo[1,5-d][1,4]diazepin-7(8H)-one] the value was 0.026 nM; for `Cc1c(-c2cc3cc(Nc4cc5n(n4)Cc4nccn4CC5)ncc3cc2F)cnc2c1NCCCO2` [Compound 183, N-(7-fluoro-6-(9-methyl-1,2,3,4-tetrahydropyrido[2,3-b][1,4]oxazepin-8-yl)isoquinolin-3-yl)-5,6-dihydro-11H-imidazo[1,2-a]pyrazolo[1,5-d][1,4]diazepin-8-amine], 0.013 nM.
For `Cc1c(-c2cc3cc(Nc4cc5n(n4)CC(=O)N(C)CC5)ncc3cc2F)cnc2cn[nH]c12` [Compound 186, 2-((7-fluoro-6-(7-methyl-1H-pyrazolo[4,3-b]pyridin-6-yl)isoquinolin-3-yl)amino)-6-methyl-5,6-dihydro-4H-pyrazolo[1,5-d][1,4]diazepin-7(8H)-one], the Ki came out at 0.12 nM.
For `Cc1c(-c2cc3cc(Nc4cc5n(n4)CC(=O)N(C)CC5)ncc3cc2F)cnc2c1NCN(C)C2=O` [Compound 187, 7-(7-fluoro-3-((6-methyl-7-oxo-5,6,7,8-tetrahydro-4H-pyrazolo[1,5-d][1,4]diazepin-2-yl)amino)isoquinolin-6-yl)-3,8-dimethyl-2,3-dihydropyrido[3,2-d]pyrimidin-4(1H)-one] the value was 0.25 nM; for `Cc1c(-c2cc3cc(Nc4cc5n(n4)CC(=O)N(C)CC5)ncc3cc2F)cnc2c1CCCO2` [Compound 190, 2-((7-fluoro-6-(5-methyl-3,4-dihydro-2H-pyrano[2,3-b]pyridin-6-yl)isoquinolin-3-yl)amino)-6-methyl-5,6-dihydro-4H-pyrazolo[1,5-d][1,4]diazepin-7(8H)-one], 0.24 nM; for `Cc1c(-c2cc3cc(Nc4cc5n(n4)CC(=O)NCC5)ncc3cc2F)cnc2c1NCCC2` [Compound 192, 2-((7-fluoro-6-(4-methyl-5,6,7,8-tetrahydro-1,5-naphthyridin-3-yl)isoquinolin-3-yl)amino)-5,6-dihydro-4H-pyrazolo[1,5-d][1,4]diazepin-7(8H)-one], 0.018 nM.
For `Cc1c(-c2cc3cc(Nc4cc5n(n4)CC(=O)N(C)CC5)ncc3cc2F)cnc2c1NS(=O)(=O)CO2` [Compound 193, 2-((7-fluoro-6-(8-methyl-2,2-dioxido-1H,3H-pyrido[3,2-e][1,3,4]oxathiazin-7-yl)isoquinolin-3-yl)amino)-6-methyl-5,6-dihydro-4H-pyrazolo[1,5-d][1,4]diazepin-7(8H)-one] the value was 23 nM; for `Cc1c(-c2cc3cc(Nc4cc5n(n4)CC(=O)N(C)CC5)ncc3cc2F)cnnc1N` [Compound 194, 2-((6-(6-amino-5-methylpyridazin-4-yl)-7-fluoroisoquinolin-3-yl)amino)-6-methyl-5,6-dihydro-4H-pyrazolo[1,5-d][1,4]diazepin-7(8H)-one], 0.83 nM.
